Laboratory results taken from US20080255155A1, “KINASE INHIBITORS AND USES THEREOF” (priority 2006, published 2008).

Experiments:
[1] = target: T1, recombinant human c-Met/HGF receptor (Homo sapiens, UniProt P08581); test: In vitro receptor tyrosine kinase assay, c-Met (DELFIA); assay type: biochemical; conditions: ATP 10 uM, enzyme 25 nM; read-out: Potency in enzyme assays Cmet
T1 construct: His tag; made in house; host or cells: Hi-5 cells (Trichoplusia ni), recombinant baculovirus
Description: (§1) These tests measure the ability of compounds to inhibit the enzymatic activity of recombinant human c-Met/HGF receptor and VEGF receptor enzymatic activity.
A 1.3-kb cDNA corresponding to the intracellular domain of c-Met or c-Met IC (Genbank accession number NP000236-1 amino acid […]) is cloned into the BamHI/XhoI sites of the pBlueBacHis2A vector (Invitrogen) for the production of a histidine-tagged version of that enzyme. This construct is used to generate recombinant baculovirus using the Bac-N-Blue™ system according to the manufacturer's instructions (Invitrogen).
(§2) The c-Met IC protein is expressed in Hi-5 cells (Trichoplusia Ni) upon infection with recombinant baculovirus construct. Briefly, Hi-5 cells grown in suspension and maintained in serum-free medium (Sf900 II supplemented with gentamycin) at a cell density of about 2×10^6 cells/ml are infected with the above-mentioned viruses at a multiplicity of infection (MOI) of 0.2 during 72 hours at 27° C. with agitation at 120 rpm on a rotary shaker. Infected cells are harvested by centrifugation at 398 g for 15 min. Cell pellets are frozen at −80° C. until purification is performed.
All steps described in cell extraction and purification are performed at 4° C. Frozen Hi-5 cell pellets infected with the C-Met IC recombinant baculovirus are thawed and gently resuspended in Buffer A (20 mM Tris pH 8.0, 10% glycerol, 1 μg/ml pepstatin, 2 μg/ml Aprotinin and leupeptin, 50 μg/ml PMSF, 50 μg/ml TLCK and 10 μM E64, 0.5 mM DTT and 1 mM Levamisole) using 3 ml of buffer per gram of cells. The suspension is Dounce homogenized after which it is centrifuged at 22500 g, 30 min., 4° C. The supernatant (cell extract) is used as starting material for purification of c-Met IC.
The supernatant is loaded onto a QsepharoseFF column (Amersham Biosciences) equilibrated with Buffer B (20 mM Tris pH 8.0, 10% glycerol) supplemented with 0.05M NaCl. Following a ten column volume (CV) wash with equilibration buffer, bound proteins are eluted with a 5 CV salt linear gradient spanning from 0.05 to 1M NaCl in Buffer B. Typically, the conductivity of selected fractions rank between 6.5 and 37 mS/cm. This Qsepharose eluate has an estimated NaCl concentration of 0.33M and is supplemented with a 5M NaCl solution in order to increase NaCl concentration at 0.5M and also with a 5M Imidazole (pH 8.0) solution to achieve a final imidazole concentration of 15 mM. This material is loaded onto a HisTrap affinity column (GE Healthcare) equilibrated with Buffer C (50 mM NaPO4 pH 8.0, 0.5M NaCl, 10% glycerol) supplemented with 15 mM imidazole. After a 10 CV wash with equilibration buffer and an 8 CV wash with buffer C+40 mM imidazole, bound proteins are eluted with an 8 CV linear gradient (15 to 500 mM) of imidazole in buffer C. C-Met IC enriched fractions from this chromatography step are pooled based on SDS-PAGE analysis. This pool of enzyme undergoes buffer exchange using PD-10 column (GE Healthcare) against buffer D (25 mM HEPES pH 7.5, 0.1M NaCl, 10% glycerol and 2 mM β-mercaptoethanol). Final C-Met IC protein preparations concentrations are about 0.5 mg/ml with purity approximating 80%. Purified c-Met IC protein stocks are supplemented with BSA at 1 mg/ml, aliquoted and frozen at −80° C. prior to use in enzymatic assay.
Inhibition of c-Met/HGF receptor and VEGFR/KDR is measured in a DELFIA™ assay (Perkin Elmer). The substrate poly(Glu4,Tyr) is immobilized onto black high-binding polystyrene 96-well plates. The coated plates are washed and stored at 4° C. During the assay, enzymes are pre-incubated with inhibitor and Mg-ATP on ice in polypropylene 96-well plates for 4 minutes, and then transferred to the coated plates. The subsequent kinase reaction takes place at 30° C. for 10-30 minutes. ATP concentrations in the assay are 10 uM for C-Met (5× the Km) and 0.6 uM for VEGFR/KDR (2× the Km). Enzyme concentration is 25 nM (C-Met) or 5 nM (VEGFR/KDR). […]

[2] = target: T2, VEGF receptor KDR (Homo sapiens, UniProt P35968); test: In vitro receptor tyrosine kinase assay, VEGF receptor KDR (DELFIA); assay type: biochemical; conditions: ATP 0.6 uM, enzyme 5 nM; read-out: Potency in enzyme assays VEGF
T2 construct: made in house; host or cells: Sf9 cells (Spodoptera frugiperda), recombinant baculovirus
Description: as §1
In the case of VEGF receptor KDR a 1.6-kb cDNA corresponding to the catalytic domain of VEGFR2 or KDR (Genbank accession number AF035121 amino acid 806 to 1356) is cloned into the Pst I site of the pDEST20 Gateway vector (Invitrogen) for the production of a GST-tagged version of that enzyme. This construct is used to generate recombinant baculovirus using the Bac-to-Bac system according to the manufacturer's instructions (Invitrogen).
as §2, with “GST-VEGFR2806-1356” for “c-Met IC”, “Sf9” for “Hi-5”, “(Spodoptera frugiperda)” for “(Trichoplusia Ni)”, “0.1” for “0.2”
All steps described in cell extraction and purification are performed at 4° C. Frozen Sf9 cell pellets infected with the GST-VEGFR2806-1356 recombinant baculovirus re thawed and gently resuspended in Buffer A (PBS pH 7.3 supplemented with 1 μg/ml pepstatin, 2 μg/ml Aprotinin and leupeptin, 50 μg/ml PMSF, 50 μg/ml TLCK and 10 μM E64 and 0.5 mM DTT) using 3 ml of buffer per gram of cells. Suspension is Dounce homogenized and 1% Triton X-100 is added to the homogenate after which it is centrifuged at 22500 g, 30 min., 4° C. The supernatant (cell extract) is used as starting material for purification of GST-VEGFR2806-1356.
The supernatant is loaded onto a GST-agarose column (Sigma) equilibrated with PBS pH 7.3. Following a four column volume (CV) wash with PBS pH 7.3+1% Triton X-100 and 4 CV wash with buffer B (50 mM Tris pH 8.0, 20% glycerol and 100 mM NaCl), bound proteins are step eluted with 5 CV of buffer B supplemented with 5 mM DTT and 15 mM glutathion. GST-VEGFR2806-1356 enriched fractions from this chromatography step are pooled based on U.V. trace i.e. fractions with high O.D^-280- Final GST-VEGFR2806-1356 protein preparations concentrations are about 0.7 mg/ml with purity approximating 70%. Purified GST-VEGFR2806-1356 protein stocks are aliquoted and frozen at −80° C. prior to use in enzymatic assay.
Inhibition of c-Met/HGF receptor and VEGFR/KDR is measured in a DELFIA™ assay (Perkin Elmer). The substrate poly(Glu4,Tyr) is immobilized onto black high-binding polystyrene 96-well plates. The coated plates are washed and stored at 4° C. During the assay, enzymes are pre-incubated with inhibitor and Mg-ATP on ice in polypropylene 96-well plates for 4 minutes, and then transferred to the coated plates. The subsequent kinase reaction takes place at 30° C. for 10-30 minutes. ATP concentrations in the assay are 10 uM for C-Met (5× the Km) and 0.6 uM for VEGFR/KDR (2× the Km). Enzyme concentration is 25 nM (C-Met) or 5 nM (VEGFR/KDR). After incubation, the kinase reactions are quenched with EDTA and the plates are washed. Phosphorylated product is detected by incubation with Europium-labeled anti-phosphotyrosine MoAb. After washing the plates, bound MoAb is detected by time-resolved fluorescence in a Gemini SpectraMax reader (Molecular Devices). Compounds are evaluated over a range of concentrations and IC50's (concentration of compounds giving 50% inhibition of enzymatic activity) are determined.

[3] = test system: A549; test: A549 wound healing inhibition; conditions: Homo sapiens; A549 cells; read-out: Potency in cell-based assays A549 wound healing inhibition
[4] = test system: DU145; test: DU145 scattering inhibition; conditions: Homo sapiens, DU-145; DU145 cells; read-out: Potency in cell-based assays DU145 scattering inhibition

T1 sequence (P08581 1078-1337): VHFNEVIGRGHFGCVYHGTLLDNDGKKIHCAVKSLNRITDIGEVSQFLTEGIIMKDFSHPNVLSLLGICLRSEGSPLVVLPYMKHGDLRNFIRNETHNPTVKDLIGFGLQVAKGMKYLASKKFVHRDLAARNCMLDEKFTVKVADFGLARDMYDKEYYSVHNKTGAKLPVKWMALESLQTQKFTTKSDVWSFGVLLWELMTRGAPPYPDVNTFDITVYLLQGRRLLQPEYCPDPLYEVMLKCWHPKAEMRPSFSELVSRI
T2 sequence (P35968 806-1356): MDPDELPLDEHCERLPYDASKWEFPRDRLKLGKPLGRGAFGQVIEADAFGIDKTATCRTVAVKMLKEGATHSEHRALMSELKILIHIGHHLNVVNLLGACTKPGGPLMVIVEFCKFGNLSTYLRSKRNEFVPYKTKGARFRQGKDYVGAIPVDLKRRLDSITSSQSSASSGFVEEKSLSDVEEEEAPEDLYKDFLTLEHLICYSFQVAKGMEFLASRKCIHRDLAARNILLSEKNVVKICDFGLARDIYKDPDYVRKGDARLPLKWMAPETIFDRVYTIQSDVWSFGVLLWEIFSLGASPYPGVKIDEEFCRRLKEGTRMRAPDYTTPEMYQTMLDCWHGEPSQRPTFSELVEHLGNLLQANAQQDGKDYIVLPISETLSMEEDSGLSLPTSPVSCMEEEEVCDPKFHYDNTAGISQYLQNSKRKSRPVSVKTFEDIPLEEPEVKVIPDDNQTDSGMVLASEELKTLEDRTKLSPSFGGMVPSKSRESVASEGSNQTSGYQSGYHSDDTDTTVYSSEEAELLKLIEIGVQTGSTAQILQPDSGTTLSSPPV

| SMILES | IC50 [1] | IC50 [2] | IC50 [3] | IC50 [4] |
| --- | --- | --- | --- | --- |
| CN(C)[C@@H]1CCN(C(=O)Nc2cc(Oc3ccc(NC(=O)N4CCN(c5ccc(F)cc5)C4=O)cc3F)ccn2)C1 [Compound 18g, (R)-N-(4-(2-(3-(dimethylamino)pyrrolidine-1-carboxamido)pyridin-4-yloxy)-3-fluorophenyl)-3-(4-fluorophenyl)-2-oxoimidazolidine-1-carboxamide] | < 250 nM | < 250 nM | ≥ 1000 nM | ≥ 1000 nM |
| CN(C)[C@H]1CCN(C(=O)Nc2cc(Oc3ccc(NC(=O)N4CCN(c5ccc(F)cc5)C4=O)cc3F)ccn2)C1 [Compound 18h, (S)-N-(4-(2-(3-(dimethylamino)pyrrolidine-1-carboxamido)pyridin-4-yloxy)-3-fluorophenyl)-3-(4-fluorophenyl)-2-oxoimidazolidine-1-carboxamide] | < 250 nM | < 250 nM | ≥ 1000 nM | ≥ 1000 nM |
| CN(C)CCCOC(=O)Nc1cc(Oc2ccc(NC(=O)N3CCN(c4ccccc4)C3=O)cc2F)ccn1 [Compound 18i, 3-(dimethylamino)propyl4-(2-fluoro-4-(2-oxo-3-phenylimidazolidine-1-carboxamido)phenoxy),pyridin-2-ylcarbamate] | < 250 nM | ≥ 1000 nM | 1000 to 5000 nM | 1000 to 5000 nM |
| O=C(Nc1ccc(Oc2ccncc2)c(F)c1)N1CCN(c2cccc(C(F)(F)F)c2)C1=O [Compound 21c, N-(3-fluoro-4-(pyridin-4-yloxy)phenyl)-2-oxo-3-(3-(trifluoromethyl)phenyl)imidazolidine-1-carboxamide] | ≥ 1000 nM | ≥ 1000 nM | 5000 to 10000 nM | 5000 to 10000 nM |
| O=C(Nc1ccc(Oc2ccncc2)c(F)c1)N1CCN(c2ccc(Cl)cc2)C1=O [Compound 21f, 3-(4-chlorophenyl)-N-(3-fluoro-4-(pyridin-4-yloxy)phenyl)-2-oxoimidazolidine-1-carboxamide] | 250 to 500 nM | ≥ 1000 nM | 1000 to 5000 nM | 5000 to 10000 nM |
| O=C(Nc1ccc(Oc2ccncc2)c(F)c1)N1CCN(c2cccc(Cl)c2)C1=O [Compound 21g, 3-(3-chlorophenyl)-N-(3-fluoro-4-(pyridin-4-yloxy)phenyl)-2-oxoimidazolidine-1-carboxamide] | 500 to 1000 nM | ≥ 1000 nM | 5000 to 10000 nM | 5000 to 10000 nM |
| O=C(Nc1ccc(Oc2ccncc2)c(F)c1)N1CCN(c2ccccc2Cl)C1=O [Compound 21h, 3-(2-chlorophenyl)-N-(3-fluoro-4-(pyridin-4-yloxy)phenyl)-2-oxoimidazolidine-1-carboxamide] | 500 to 1000 nM | ≥ 1000 nM | 1000 to 5000 nM | ≥ 1000 nM |
| CC(=O)Nc1ccc(Oc2cccc(NC(=O)N3CCN(c4ccccc4)C3=O)c2)cn1 [Compound 31a, N-(3-(6-acetamidopyridin-3-yloxy)phenyl)-2-oxo-3-phenylimidazolidine-1′-carboxamide] | 250 to 500 nM | ≥ 1000 nM | 1000 to 5000 nM | 5000 to 10000 nM |

Continued, values first:

| IC50 [1] | IC50 [2] | IC50 [3] | IC50 [4] | SMILES |
| --- | --- | --- | --- | --- |
| 500 to 1000 nM | ≥ 1000 nM | 5000 to 10000 nM | > 10000 nM | O=C(Nc1ccc(Oc2ccnc(Nc3ccccc3)n2)c(F)c1)N1CCN(c2ccccc2)C1=O [Compound 61a, N-(3-fluoro-4-(2-(phenylamino)pyrimidin-4-yloxy)phenyl)-2-oxo-3-phenyl-imidazolidine-1-carboxamide] |
| 500 to 1000 nM | ≥ 1000 nM | 5000 to 10000 nM | 5000 to 10000 nM | COc1ccc(Nc2nccc(Oc3ccc(NC(=O)N4CCN(c5ccccc5)C4=O)cc3F)n2)cc1 [Compound 61b, N-(3-fluoro-4-(2-(4-methoxyphenylamino)pyrimidin-4-yloxy)phenyl)-2-oxo-3-phenylimidazolidine-1-carboxamide] |
| < 250 nM | ≥ 1000 nM | 1000 to 5000 nM | 5000 to 10000 nM | O=C(Nc1ccc(Oc2ccnc(Nc3ccccc3)c2)c(F)c1)N1CCN(c2ccccc2)C1=O [Compound 70, N-(3-fluoro-4-(2-(phenylamino)pyridin-4-yloxy)phenyl)-2-oxo-3-phenylimidazolidine-1-carboxamide] |
| 250 to 500 nM | 250 to 500 nM | 1000 to 5000 nM | 5000 to 10000 nM | CNC(=O)c1cc(Oc2ccc(NC(=O)N3CCN(c4ccccc4)C3=O)cc2F)ccn1 [Compound 87a, 4-(2-fluoro-4-(2-oxo-3-phenylimidazolidine-1-carboxamido)phenoxy)-N-methylpicolinamide] |
